Read-outs that look alike come from different tables or passages of the source. *1 amine or outer side, *2 acyl side, *3 side chain or, on linkers, in order; H or OH if unused. Where a SMILES comes first, the peptide text is derived from it. Bridges are numbered along the chain shown (N, C = ends). [ ]: non-standard residue; d: D form. The star is where a group is joined. X7 = CC(C)C(=O)N1[C@H]2CC[C@@H]1C=C(c1ccc(F)cc1C[C@@H](C(=O)[*:2])N(C)[*:1])C2; X34 = CN1CC(N2CCN(c3ccc(-c4ccc(Cl)cc4C[C@@H](C(=O)[*:2])N(C)[*:1])cc3)CC2)C1; NMePhe(2-(4-MorPh),5-Cl) = CN[C@@H](Cc1cc(Cl)ccc1-c1ccc(N2CCOCC2)cc1)C(=O)O; X92 = CN1CCN(C(=O)c2ccc(-c3ccc(Cl)cc3C[C@@H](C(=O)[*:2])N(C)[*:1])cc2)CC1; X11 = CN1CCN(c2ccc(-c3ccc(Cl)cc3C[C@@H](C(=O)[*:2])N(C)[*:1])cc2)CC1; X46 = CN([C@@H](Cc1cc(Cl)ccc1-c1ccc(S(C)(=O)=O)cc1)C(=O)[*:2])[*:1]; X82 = CN([C@@H](Cc1cc(Cl)ccc1-c1cnn(S(C)(=O)=O)c1)C(=O)[*:2])[*:1]; X26 = CN([C@@H](Cc1cc(F)ccc1-c1cnn(C2CC2)c1)C(=O)[*:2])[*:1]; NMehhhLys(Me) = CN([C@@H](CCCCCCCN(C)[*:3])C(=O)[*:2])[*:1]; X2 = CN([C@@H](Cc1cc(Cl)ccc1-c1ccc2ncnn2c1)C(=O)[*:2])[*:1]; NMe3Pal(2-OiPr,5-Cl) = CN[C@@H](Cc1cc(Cl)cnc1OC(C)C)C(=O)O; X104 = CN([C@@H](Cc1cc(Cl)ccc1C1=CCOCC1)C(=O)[*:2])[*:1]; NMe(hhhLys) = CN([C@@H](CCCCCCCN[*:3])C(=O)[*:2])[*:1]; Cyclobutanecarbonyl(1-CF3) = O=C(C1(C(F)(F)F)CCC1)*; cBuCO(3,3-F2-1-CF3) = O=C(C1(C(F)(F)F)CC(F)(F)C1)*; X25 = CCOc1ncc(Cl)cc1C[C@@H](C(=O)[*:2])N(C)[*:1]; Pro(trans-4-F) = O=C(O)[C@@H]1C[C@@H](F)CN1; Gly(cPr) = N[C@H](C(=O)O)C1CC1; X9 = C[C@@]1(C(=O)*)CC1(F)F
What was measured:
CyclinB1/CDK1 = target: T1, CyclinB1/CDK1 (Homo sapiens, UniProt P14635); test: Fluorescence Polarization (FP) competitive binding assay, Cyclin B1/Cdk1;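 also: fluorescence polarization read after equilibration at room temperature, with IC50 taken from serially diluted dose-response curves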
T1 construct: purchased Eurofins, discovery 14-450

NCI-H1048 cells = test: MTT proliferation assay, NCI-H1048; type: cell-based; details: 5 days compound exposure, 1:3 serial dilution starting at 10 μM;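 also: Dose-response in 96-well plates over 8 or 10 concentration points, with exposure spanning 3-4 cell doublings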
CyclinE1/CDK2 = target: T2, CyclinE1/CDK2 (Homo sapiens, UniProt P24864); test: Fluorescence Polarization (FP) competitive binding assay, Cyclin E1/Cdk2;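 also: readings taken after two-hour equilibration at room temperature in HEPES buffer with NaCl, DTT, NP-40 and BSA, IC50 fitted from eight-concentration serial dilution series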
T2 construct: purchased Eurofins, discovery 14-475

CyclinA2/CDK2 = target: T3, CyclinA2/CDK2 (Homo sapiens, UniProt P20248); test: Fluorescence Polarization (FP) competitive binding assay, Cyclin A2/Cdk2;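 also: plates equilibrated two hours at room temperature before polarization reading, IC50 fitted from eight-concentration compound titration curves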
T3 construct: purchased CRELUX Protein Services

OVCAR3 cells = test: MTT proliferation assay, OVCAR3; type: cell-based; details: 5 days compound exposure, 1:3 serial dilution starting at 10 μM;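 also: compound given as an 8- or 10-point series, one day after plating, with exposure covering roughly 3-4 cell doublings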
WI-38 cells = test: MTT proliferation assay, WI-38; type: cell-based; details: 3 days compound exposure, 1:3 serial dilution starting at 10 μM;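 also: Eight- or ten-point dilution series, with exposure length chosen to span about three to four cell doublings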
[1] = read-out: Cyclin B FP IC50; 10 nM Cyclin B1/Cdk1, 2 nM FAM probe; average of 2-3 independent experiments
[2] = 10 nM Cyclin B1/Cdk1, 2 nM FAM probe; average of 2-3 independent experiments; read-out: Cyclin B FP IC50
[3] = 10 nM Cyclin E1/Cdk2, 2 nM FAM probe, average of 2-3 independent experiments, read-out: Cyclin E FP IC50
[4] = 8 nM Cyclin A2/Cdk2, 2 nM FAM probe, average of 2-3 independent experiments, read-out: Cyclin A FP IC50

| Compound | IC50 (CyclinB1/CDK1; [1]) | GI50 (NCI-H1048 cells) | IC50 (CyclinE1/CDK2) | IC50 (CyclinA2/CDK2) | GI50 (OVCAR3 cells) | GI50 (WI-38 cells) | IC50 (CyclinB1/CDK1; [2]) | IC50 (CyclinE1/CDK2; [3]) | IC50 (CyclinA2/CDK2; [4]) |
| --- | --- | --- | --- | --- | --- | --- | --- | --- | --- |
| CC(C)C[C@@H]1NC(=O)[C@@H](N(C)C(=O)[C@@H](NC(=O)[C@@H]2C[C@@H](F)CN2C(=O)C2(C(F)(F)F)CC(F)(F)C2)C2CC2)CCCCCCCN(C)C(=O)[C@H](Cc2cc(Cl)ccc2-c2cnn(S(C)(=O)=O)c2)N(C)C1=O [Example 238] ({cBuCO(3,3-F2-1-CF3)}-[Pro(trans-4-F)][Gly(cPr)][NMehhhLys(Me)]L[X82]; lactam 3-C) | 20 nM | 10 nM | 990 nM | 30 nM | 20 nM | 17.3 µM | – | – | – |
| CCOc1ncc(Cl)cc1C[C@H]1C(=O)N(C)CCCCCCC[C@H](N(C)C(=O)[C@@H](NC(=O)[C@@H]2C[C@@H](F)CN2C(=O)C2(C(F)(F)F)CCC2)C2CC2)C(=O)N[C@@H](CC(C)C)C(=O)N1C [Example 227] ({Cyclobutanecarbonyl(1-CF3)}-[Pro(trans-4-F)][Gly(cPr)][NMehhhLys(Me)]L[X25]; lactam 3-C) | 20 nM | 20 nM | 120 nM | 30 nM | 40 nM | 14.1 µM | – | – | – |
| CC(C)C[C@@H]1NC(=O)[C@@H](N(C)C(=O)[C@@H](NC(=O)[C@@H]2C[C@@H](F)CN2C(=O)C2(C(F)(F)F)CCC2)C2CC2)CC=CCCCCN(C)C(=O)[C@H](Cc2cc(F)ccc2-c2cnn(C)c2)N(C)C1=O [Example 40] | – | 60 nM | – | – | 50 nM | 15.4 µM | 20 nM | 240 nM | 50 nM |
| CC(C)C[C@@H]1NC(=O)[C@@H](N(C)C(=O)[C@@H](NC(=O)[C@@H]2C[C@@H](F)CN2C(=O)C2(C(F)(F)F)CC(F)(F)C2)C2CC2)CCCCCCCN(C)C(=O)[C@H](Cc2cc(Cl)ccc2-c2ccc(N3CCN(C)CC3)cc2)N(C)C1=O [Example 336] ({cBuCO(3,3-F2-1-CF3)}-[Pro(trans-4-F)][Gly(cPr)][NMehhhLys(Me)]L[X11]; lactam 3-C) | – | 10 nM | – | – | 10 nM | 2.48 µM | 20 nM | 420 nM | 20 nM |
| CC(C)C[C@@H]1NC(=O)[C@@H](N(C)C(=O)[C@@H](NC(=O)[C@@H]2C[C@@H](F)CN2C(=O)C2(C(F)(F)F)CC(F)(F)C2)C2CC2)CCCCCCCN(C)C(=O)[C@H](Cc2cc(F)ccc2C2=C[C@H]3CC[C@@H](C2)N3C(=O)C(C)C)N(C)C1=O [Example 318] ({cBuCO(3,3-F2-1-CF3)}-[Pro(trans-4-F)][Gly(cPr)][NMehhhLys(Me)]L[X7]; lactam 3-C) | – | 10 nM | – | – | 10 nM | 9.92 µM | 20 nM | 280 nM | 20 nM |
| CC(C)C[C@@H]1NC(=O)[C@@H](N(C)C(=O)[C@@H](NC(=O)[C@@H]2C[C@@H](F)CN2C(=O)C2(C(F)(F)F)CCC2)C2CC2)CC=CCCCCN(C)C(=O)[C@H](Cc2cc(Cl)cnc2OC2CC2)N(C)C1=O [Example 106] | – | 410 nM | – | – | 540 nM | 6.39 µM | 20 nM | 240 nM | 120 nM |
| CC(C)C[C@@H]1NC(=O)[C@@H](N(C)C(=O)[C@@H](NC(=O)[C@@H]2C[C@@H](F)CN2C(=O)C2(C(F)(F)F)CCC2)C2CC2)CC=CCCCCN(C)C(=O)[C@H](Cc2cc(Cl)ccc2-c2cnn(C3CC3)c2)N(C)C1=O [Example 81] | – | 40 nM | – | – | 50 nM | 4.3 µM | 20 nM | 300 nM | 40 nM |
| CC(C)C[C@@H]1NC(=O)[C@@H](N(C)C(=O)[C@@H](NC(=O)[C@@H]2C[C@@H](F)CN2C(=O)C2(C(F)(F)F)CCC2)C2CC2)CCCCCCCN(C)C(=O)[C@H](Cc2cc(F)ccc2-c2cnn(C3CC3)c2)N(C)C1=O [Example 186] ({Cyclobutanecarbonyl(1-CF3)}-[Pro(trans-4-F)][Gly(cPr)][NMehhhLys(Me)]L[X26]; lactam 3-C) | – | 10 nM | – | – | 10 nM | 8.68 µM | 20 nM | 100 nM | 20 nM |
| CC(C)C[C@@H]1NC(=O)[C@@H](N(C)C(=O)[C@@H](NC(=O)[C@@H]2C[C@@H](F)CN2C(=O)C2(C(F)(F)F)CC(F)(F)C2)C2CC2)CCCCCCCN(C)C(=O)[C@H](Cc2cc(Cl)ccc2C2=CCOCC2)N(C)C1=O [Example 51] ({cBuCO(3,3-F2-1-CF3)}-[Pro(trans-4-F)][Gly(cPr)][NMehhhLys(Me)]L[X104]; lactam 3-C) | – | 10 nM | – | – | 10 nM | 18.8 µM | 20 nM | 890 nM | 20 nM |
| CC(C)C[C@@H]1NC(=O)[C@@H](N(C)C(=O)[C@@H](NC(=O)[C@@H]2C[C@@H](F)CN2C(=O)C2(C(F)(F)F)CC(F)(F)C2)C2CC2)CC=CCCCCNC(=O)[C@H](Cc2cc(Cl)ccc2-c2cnn(C)c2)N(C)C1=O [Example 26] | – | 110 nM | – | – | 170 nM | 8.74 µM | 20 nM | 1170 nM | 60 nM |
| CC(C)C[C@@H]1NC(=O)[C@@H](N(C)C(=O)[C@@H](NC(=O)[C@@H]2C[C@@H](F)CN2C(=O)C2(C(F)(F)F)CC(F)(F)C2)C2CC2)CCCCCCCN(C)C(=O)[C@H](Cc2cc(Cl)ccc2-c2ccc(C(=O)N3CCN(C)CC3)cc2)N(C)C1=O [Example 390] ({cBuCO(3,3-F2-1-CF3)}-[Pro(trans-4-F)][Gly(cPr)][NMehhhLys(Me)]L[X92]; lactam 3-C) | – | 30 nM | – | – | 20 nM | 9.24 µM | 20 nM | 870 nM | 20 nM |
| CC(C)C[C@@H]1NC(=O)[C@@H](N(C)C(=O)[C@@H](NC(=O)[C@@H]2C[C@@H](F)CN2C(=O)C2(C(F)(F)F)CC(F)(F)C2)C2CC2)CCCCCCCN(C)C(=O)[C@H](Cc2cc(Cl)ccc2-c2ccc3ncnn3c2)N(C)C1=O [Example 232] ({cBuCO(3,3-F2-1-CF3)}-[Pro(trans-4-F)][Gly(cPr)][NMehhhLys(Me)]L[X2]; lactam 3-C) | 20 nM | 50 nM | 2870 nM | 50 nM | 80 nM | 11.6 µM | – | – | – |
| CC(C)C[C@@H]1NC(=O)[C@@H](N(C)C(=O)[C@@H](NC(=O)[C@@H]2C[C@@H](F)CN2C(=O)C2(C(F)(F)F)CC(F)(F)C2)C2CC2)CCCCCCCN(C)C(=O)[C@H](Cc2cc(Cl)ccc2-c2ccc(N3CCN(C4CN(C)C4)CC3)cc2)N(C)C1=O [Example 383, (2S,4R)—N—((S)-2-(((3S,6S,9S)-3-((4-chloro-4′-(4-(1-methylazetidin-3-yl)piperazin-1-yl)-[1,1′-biphenyl]-2-yl)methyl)-6-isobutyl-1,4-dimethyl-2,5,8-trioxo-1,4,7-triazacyclohexadecan-9-yl)(methyl)amino)-1-cyclopropyl-2-oxoethyl)-1-(3,3-difluoro-1-(trifluoromethyl)cyclobutane-1-carbonyl)-4-fluoropyrrolidine-2-carboxamide] ({cBuCO(3,3-F2-1-CF3)}-[Pro(trans-4-F)][Gly(cPr)][NMehhhLys(Me)]L[X34]; lactam 3-C) | – | 10 nM | – | – | 10 nM | 2.7 µM | 20 nM | 530 nM | 20 nM |
| CC(C)C[C@@H]1NC(=O)[C@@H](N(C)C(=O)[C@@H](NC(=O)[C@@H]2C[C@@H](F)CN2C(=O)C2(C(F)(F)F)CCC2)C2CC2)CCCCCCCNC(=O)[C@H](Cc2cc(Cl)cnc2OC(C)C)N(C)C1=O [Example 138] ({Cyclobutanecarbonyl(1-CF3)}-[Pro(trans-4-F)][Gly(cPr)][NMe(hhhLys)]L[NMe3Pal(2-OiPr,5-Cl)]; lactam 3-C) | – | 200 nM | – | – | 280 nM | 6.67 µM | 20 nM | 110 nM | 30 nM |
| CCN(C(=O)[C@@H](NC(=O)[C@@H]1C[C@@H](F)CN1C(=O)C1(C(F)(F)F)CC(F)(F)C1)C1CC1)[C@H]1CCCCCCCN(C)C(=O)[C@H](Cc2cc(Cl)ccc2-c2ccc(N3CCN(C)CC3)cc2)N(C)C(=O)[C@H](CC(C)C)NC1=O [Example 388] | – | 20 nM | – | – | 20 nM | 3.5 µM | 20 nM | 3930 nM | 20 nM |
| CC(C)C[C@@H]1NC(=O)[C@@H](N(C)C(=O)[C@@H](NC(=O)[C@@H]2C[C@@H](F)CN2C(=O)C2(C(F)(F)F)CC(F)(F)C2)C2CC2)CCCCCCCN(C)C(=O)[C@H](Cc2cc(Cl)ccc2-c2ccc(S(C)(=O)=O)cc2)N(C)C1=O [Example 262] ({cBuCO(3,3-F2-1-CF3)}-[Pro(trans-4-F)][Gly(cPr)][NMehhhLys(Me)]L[X46]; lactam 3-C) | – | 10 nM | – | – | 20 nM | 16.2 µM | 20 nM | 910 nM | 20 nM |
| CC(C)C[C@@H]1NC(=O)[C@@H](N(C)C(=O)[C@@H](NC(=O)[C@@H]2C[C@@H](F)CN2C(=O)[C@]2(C)CC2(F)F)C2CC2)CCCCCCCN(C)C(=O)[C@H](Cc2cc(Cl)ccc2-c2ccc(N3CCOCC3)cc2)N(C)C1=O [Example 399] (X9-[Pro(trans-4-F)][Gly(cPr)][NMehhhLys(Me)]L[NMePhe(2-(4-MorPh),5-Cl)]; lactam 3-C) | – | 220 nM | – | – | 110 nM | 3.65 µM | 20 nM | 3000 nM | 70 nM |

— patent US20240408169A1 (priority 2023, published 2024)
